Laboratory results reported in US6737383B1, “Herbicidal oxadiazolidines” (priority 1999, dated 2004).

Legend:
surinam grass = test: Test B pre/postemergence surinam grass; format: in vivo, Brachiaria decumbens
Outline: (§1)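 Response is a visual 0-to-10 score relative to untreated plants, where 0 means no effect and 10 means complete control, taken twelve to sixteen days after application. Treatments went onto soil at planting and onto foliage of 1- to 4-leaf plants, using a surfactant-containing non-phytotoxic solvent.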

cocklebur = test: Test B pre/postemergence cocklebur; format: in vivo, Xanthium strumarium
Outline: as §1

corn = test: Test B pre/postemergence corn; format: in vivo, Zea mays
Outline: as §1

crabgrass = test: Test B pre/postemergence crabgrass; format: in vivo, Digitaria sanguinalis
Outline: as §1

[1] = Preemergence, Rate 62 g/ha, scale of 0 to 10 where 0 is no effect and 10 is complete control
[2] = Preemergence, Rate 250 g/ha, scale of 0 to 10 where 0 is no effect and 10 is complete control
[3] = Preemergence, Rate 500 g/ha, scale of 0 to 10 where 0 is no effect and 10 is complete control
[4] = Rate 62 g/ha, Postemergence, scale of 0 to 10 where 0 is no effect and 10 is complete control
[5] = Rate 125 g/ha, Postemergence, scale of 0 to 10 where 0 is no effect and 10 is complete control
[6] = Rate 125 g/ha, Preemergence, scale of 0 to 10 where 0 is no effect and 10 is complete control
[7] = Rate 250 g/ha, Postemergence, scale of 0 to 10 where 0 is no effect and 10 is complete control
[8] = Rate 500 g/ha, Postemergence, scale 0 to 10, 0 no effect, 10 complete control
[9] = Postemergence, Rate 62 g/ha, scale 0 to 10, 0 is no effect, 10 is complete control
[10] = Postemergence, Rate 250 g/ha, scale 0 to 10, 0 no effect, 10 complete control
[11] = Preemergence, Rate 62 g/ha, scale 0 to 10 (0 no effect, 10 complete control)
[12] = Preemergence, Rate 125 g/ha, scale 0 to 10 (0 no effect, 10 complete control)
[13] = Preemergence, Rate 500 g/ha, scale 0 (no effect) to 10 (complete control)
[14] = Rate 125 g/ha, Postemergence, scale 0 to 10, 0 no effect, 10 complete control

**Q.** For `CC(C)N(C(=O)n1oc(=O)n(-c2ccsc2)c1=O)c1ccc(F)cc1` [Compound 272], which “B. signalgrass plant response rating” value (surinam grass; [1]) is on record?
**A.** 0

**Q.** And the “B. signalgrass plant response rating” value (surinam grass; [2])?
**A.** 0

**Q.** What about the “Plant response rating, B. signalgrass” value (surinam grass; [3]) of the same compound?
**A.** 0

**Q.** And the “B. signalgrass plant response rating” value (surinam grass; [4])?
**A.** 0

**Q.** And the “B. signalgrass plant response rating” value (surinam grass; [5])?
**A.** 0

**Q.** What about the “B. signalgrass plant response rating” value (surinam grass; [6]) of the same compound?
**A.** 0

**Q.** And the “Plant response rating, B. signalgrass” value (surinam grass; [7])?
**A.** 0

**Q.** And the “B. signalgrass plant response rating” value (surinam grass; [8])?
**A.** 0

**Q.** What about the “Cocklebur plant response rating” value (cocklebur; [1]) of the same compound?
**A.** 0

**Q.** What about the “Cocklebur plant response rating” value (cocklebur; [2]) of the same compound?
**A.** 0

**Q.** And the “Plant response rating, Cocklebur” value (cocklebur; [3])?
**A.** 0

**Q.** And the “Cocklebur plant response rating” value (cocklebur; [4])?
**A.** 0

**Q.** What about the “Cocklebur plant response rating” value (cocklebur; [5]) of the same compound?
**A.** 0

**Q.** And the “Cocklebur plant response rating” value (cocklebur; [6])?
**A.** 0

**Q.** And the “Plant response rating, Cocklebur” value (cocklebur; [7])?
**A.** 1

**Q.** What about the “Cocklebur plant response rating” value (cocklebur; [8]) of the same compound?
**A.** 1

**Q.** What about the “Corn plant response rating” value (corn; [1]) of the same compound?
**A.** 0

**Q.** What about the “Corn plant response rating” value (corn; [2]) of the same compound?
**A.** 0

**Q.** What about the “Plant response rating, Corn” value (corn; [3]) of the same compound?
**A.** 0

**Q.** And the “Corn plant response rating” value (corn; [4])?
**A.** 0

**Q.** And the “Corn plant response rating” value (corn; [5])?
**A.** 0

**Q.** And the “Corn plant response rating” value (corn; [6])?
**A.** 0

**Q.** And the “Plant response rating, Corn” value (corn; [7])?
**A.** 0

**Q.** What about the “Corn plant response rating” value (corn; [8]) of the same compound?
**A.** 0

**Q.** And the “Crabgrass plant response rating” value (crabgrass; [1])?
**A.** 0

**Q.** What about the “Crabgrass plant response rating” value (crabgrass; [2]) of the same compound?
**A.** 0

**Q.** And the “Plant response rating, Crabgrass” value (crabgrass; [3])?
**A.** 2

**Q.** What about the “Crabgrass plant response rating” value (crabgrass; [5]) of the same compound?
**A.** 0

**Q.** What about the “Crabgrass plant response rating” value (crabgrass; [6]) of the same compound?
**A.** 0

**Q.** And the “Plant response rating, Crabgrass” value (crabgrass; [7])?
**A.** 0

**Q.** And the “Crabgrass plant response rating” value (crabgrass; [8])?
**A.** 0

**Q.** What does the source list for `CCN(Cc1ccccc1)C(=O)n1oc(=O)n(-c2c(C)cccc2C)c1=O` [Compound 70]?
**A.** B. signalgrass plant response rating (surinam grass; [9]): 0; B. signalgrass plant response rating (surinam grass; [10]): 0; B. signalgrass plant response rating (surinam grass; [11]): 0; Plant response rating, B. signalgrass (surinam grass; [12]): 0; Plant response rating, B. signalgrass (surinam grass; [2]): 0; B. signalgrass plant response rating (surinam grass; [13]): 0; B. signalgrass plant response rating (surinam grass; [14]): 0; B. signalgrass plant response rating (surinam grass; Rate 500 g/ha, Postemergence, scale of 0 to 10 where 0 is no effect and 10 is complete control): 0; Cocklebur plant response rating (cocklebur; [9]): 0; Cocklebur plant response rating (cocklebur; [10]): 0; Cocklebur plant response rating (cocklebur; [11]): 0; Plant response rating, Cocklebur (cocklebur; [12]): 0; Plant response rating, Cocklebur (cocklebur; [2]): 0; Cocklebur plant response rating (cocklebur; [13]): 0; Cocklebur plant response rating (cocklebur; [14]): 0; Cocklebur plant response rating (cocklebur; [8]): 0; Corn plant response rating (corn; [9]): 0; Corn plant response rating (corn; [10]): 0; Corn plant response rating (corn; [11]): 0; Plant response rating, Corn (corn; [12]): 0; Plant response rating, Corn (corn; [2]): 0; Corn plant response rating (corn; [13]): 0; Corn plant response rating (corn; [14]): 0; Corn plant response rating (corn; [8]): 0; Crabgrass plant response rating (crabgrass; [9]): 0; Crabgrass plant response rating (crabgrass; [10]): 0; Crabgrass plant response rating (crabgrass; [11]): 0; Plant response rating, Crabgrass (crabgrass; [12]): 0; Plant response rating, Crabgrass (crabgrass; [2]): 0; Crabgrass plant response rating (crabgrass; [13]): 0; Crabgrass plant response rating (crabgrass; [14]): 0; Crabgrass plant response rating (crabgrass; [8]): 0
